The text below walks through data of ChEMBL document CHEMBL3046758, “Biological evaluation of novel 1,4-dithiine derivatives as potential antimicrobial agents” (Med Chem Res, 2011).

One data set deals with Candida albicans. Briefly: Antifungal activity against Candida albicans DSM 1386 after 24 to 48 hr by broth microdilution method. Format: functional. In general terms: In broth dilution the organism is exposed to a series of concentrations in liquid medium.
A further data set has as its system Pseudomonas aeruginosa. Kind of data set: Antibacterial activity against Pseudomonas aeruginosa DSM 1117 after 16 to 20 hr by broth microdilution method. Format: functional.
A further data set concerns Poliovirus 1. Briefly: Antiviral activity against Human poliovirus 1 strain Sabin infected African green monkey Vero76 cells assessed as reduction of virus-induced plaque reduction after 2 days by MTT assay. The note with it: Enterovirus C, Vero 76, 48 h. It is filed as functional, organism-based. On the technique in general: Tetrazolium assays rely on reduction of a dye to a coloured formazan, in cell work by metabolically active cells.

A further data set concerns Staphylococcus aureus. Briefly: Antibacterial activity against Staphylococcus aureus DSM 2569 after 16 to 20 hr by broth microdilution method. Format: functional.
A further data set relates to Vaccinia virus. Kind of data set: Antiviral activity against Vaccinia virus infected African green monkey Vero76 cells assessed as reduction of virus-induced plaque reduction after 3 days by MTT assay. Format: functional, organism-based. The note with it: Orthopoxvirus vaccinia, Vero 76, 72 h.
The nature of data set [1]: Selectivity index, ratio of CC50 for green monkey Vero76 cells to EC50 for Yellow fever virus. Format: toxicity, cell-based, Vero 76. The note with it: read-out: Ratio CC50/EC50.
Data set [2] has as its system Vesicular stomatitis virus. Kind of data set: Antiviral activity against Vesicular stomatitis virus infected african green monkey Vero76 cells assessed as reduction of virus-induced plaque reduction after 3 days by MTT assay. Format: functional, organism-based. The note with it: Vero 76, 72 h.
Data set [3] in a line: Selectivity index, ratio of CC50 for green monkey Vero76 cells to EC50 for HSV1. Details: species or system Vero 76.
For a further data set, the system named is Human alphaherpesvirus 1. Briefly: Antiviral activity against Human herpesvirus 1 infected African green monkey Vero76 cells assessed as reduction of virus-induced plaque reduction after 3 days by MTT assay. Format: functional, organism-based. The note with it: Human alphaherpesvirus 1, Vero 76, 72 h.
Data set [4] is described as follows: Selectivity index, ratio of CC50 for green monkey Vero76 cells to EC50 for Coxsackievirus B2. It is filed as toxicity, cell-based, Vero 76. The note with it: read-out: Ratio CC50/EC50.
A short description of data set [5]: Cytotoxicity against Chlorocebus aethiops (African green monkey) Vero76 cells after 48 to 120 hr by MTT assay. The note with it: chlorocebus sabaeus. It is filed as cell-based, Vero 76.
Another data set relates to Coxsackievirus B2. Kind of data set: Antiviral activity against Human coxsackievirus B2 infected African green monkey Vero76 cells assessed as reduction of virus-induced plaque reduction after 3 days by MTT assay. The note with it: Enterovirus B, Vero 76, 72 h. It is filed as functional, organism-based.
Another data set concerns Aspergillus niger. Briefly: Antifungal activity against Aspergillus niger DSM 1988 after 24 to 48 hr by broth microdilution method. Format: functional.
Data set [6] concerns Mammalian orthoreovirus 1. Kind of data set: Antiviral activity against Mammalian orthoreovirus 1 infected BHK21 cells assessed as inhibition of virus-induced cytopathogenicity after 3 to 4 days by MTT assay. It is filed as functional, organism-based. The note with it: Mammalian orthoreovirus 1, BHK-21. On the technique in general: Damage to the host cells serves as the signal in cytopathic effect assays.

Another data set relates to Yellow fever virus. Kind of data set: Antiviral activity against Yellow fever virus infected BHK21 cells assessed as inhibition of virus-induced cytopathogenicity after 3 to 4 days by MTT assay. It is filed as functional, organism-based. The note with it: BHK-21.
A short description of data set [7]: Cytotoxicity against Cricetinae BHK21 (hamster normal kidney fibroblast) cells after 48 to 120 hr by MTT assay. It is filed as cell-based, Mesocricetus auratus, BHK-21. The note with it: BHK21 cells (normal kidney fibroblasts).
Data set [8] has as its system Bovine viral diarrhea virus 1. Briefly: Antiviral activity against Bovine viral diarrhea virus 1 infected MDBK cells assessed as inhibition of virus-induced cytopathogenicity after 3 to 4 days by MTT assay. It is filed as functional, organism-based. The note with it: Bovine viral diarrhea virus isolates and strains.
Data set [9] is described as follows: Cytotoxicity against Bos taurus MDBK cells after 48 to 120 hr by MTT assay. The note with it: cattle. It is filed as cell-based.
The test system of data set [10] is Human immunodeficiency virus 1. Kind of data set: Antiviral activity against Human immunodeficiency virus 1 infected human MT4 cells assessed as inhibition of virus-induced cytopathogenicity after 4 days by MTT assay. It is filed as functional, organism-based. The note with it: Human immunodeficiency virus 1, MT4, 96 h.
Data set [11] is described as follows: Cytotoxicity against Homo sapiens (human) MT4 cells containing integrated HTLV-1 genome after 96 hr by MTT assay. It is filed as cell-based.

What is called MIC is the least concentration at which growth counts as inhibited. One may read the EC50 as the midpoint of the concentration-response curve. As usually defined, the CC50 is the concentration at which the toxic effect on the cells reaches its halfway point. Consider `O=C1C2=C(SCCS2)C(=O)N1CCCCN1CCN(c2ccccc2)CC1`, for which the MIC in the data set on Candida albicans, against Pseudomonas aeruginosa, with Staphylococcus aureus and against Aspergillus niger was over 100 µM in each case. Further, the EC50 in the data set on Poliovirus 1 was over 100 µM; with Vaccinia virus it was over 100 µM; in [2], over 100 µM; in the data set on Human alphaherpesvirus 1 it was 19 µM; with Coxsackievirus B2, 66 µM; in [6] it was over 100 µM. Further, the EC50 in the data set with Yellow fever virus was 88 µM; in data set [8], over 100 µM; in data set [10], over 100 µM. Besides, the values for the selectivity ratio in data set [1] and in data set [4] were over 1.14 and over 1.51, respectively. Moreover, the “Ratio CC50/EC50” value in [3] is listed as over 5.26. Also, the CC50 in data set [5], in [7] and in data set [9] was over 100 µM throughout. Further, the CC50 at 96 h in data set [11] was over 100 µM.
